Experimental data from ChEMBL document CHEMBL1129685, “Mechanism-based inhibition of L-pipecolate oxidase by 4,5-dehydro-L-pipecolic acid” (J Med Chem, 1996).

Target: T1, Peroxisomal sarcosine oxidase (Homo sapiens) (UniProt Q9P0Z9)
T1 sequence (whole entry): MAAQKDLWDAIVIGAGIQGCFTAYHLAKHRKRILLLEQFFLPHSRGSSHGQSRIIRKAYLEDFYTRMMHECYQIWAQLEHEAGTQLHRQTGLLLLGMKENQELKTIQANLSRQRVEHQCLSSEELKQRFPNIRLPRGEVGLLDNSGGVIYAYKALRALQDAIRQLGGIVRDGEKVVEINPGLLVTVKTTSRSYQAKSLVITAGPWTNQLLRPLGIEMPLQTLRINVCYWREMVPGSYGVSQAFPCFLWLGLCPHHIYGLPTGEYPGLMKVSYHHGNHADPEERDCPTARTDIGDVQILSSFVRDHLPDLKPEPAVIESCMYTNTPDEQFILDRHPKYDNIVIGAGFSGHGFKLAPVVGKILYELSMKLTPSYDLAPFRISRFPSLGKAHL
Experiment: Kinetic parameter inactivation constant was determined on L-pipecolate oxidase from Rhesus monkey
Details: Cercopithecidae; target entry is the homologue from another species

Kiact: 2 min⁻¹
SMILES: O=C(O)[C@@H]1CCCCN1
